Results reported in US20220088403A1, “Methods And Compositions For Treating Coronavirus” (NOVOCURE GMBH, priority 2020, published 2022).

Legend:
HCoV-229E [1] = experiment: Extracellular viral amount (virions secreted to the media) by RT-qPCR, combined effect of TTFields with remdesivir; type: cell-based, HCoV-229E in human MRC-5 lung fibroblast cells; settings: 48 hpi
HCoV-229E [2] = experiment: Intracellular (cellular) viral load by RT-qPCR, combined effect of TTFields with remdesivir; type: cell-based, HCoV-229E in human MRC-5 lung fibroblast cells; settings: for Calculated additive: Remdesivir alone multiplied by TTFields alone

CCC(CC)COC(=O)[C@H](C)N[P@](=O)(OC[C@H]1O[C@@](C#N)(c2ccc3c(N)ncnn23)[C@H](O)[C@@H]1O)Oc1ccccc1 [remdesivir]
reduction in number of virions secreted to the media (HCoV-229E [1]; 0.011 μM remdesivir alone): 31%
reduction in number of virions secreted to the media (HCoV-229E [1]; 0.023 μM remdesivir alone): 75%
decrease in number of virions secreted to the media (HCoV-229E [1]; high dose (0.023 μM) remdesivir with concomitant 150 kHz TTFields): 88%
decrease in number of virions secreted to the media (HCoV-229E [1]; low dose (0.011 μM) remdesivir with concomitant 150 kHz TTFields): 68%
reduction of cellular viral load (HCoV-229E [2]; 0.023 μM remdesivir alone, MRC-5 infected 3 hr, MOI 0.01, 48 hpi): 65%
inhibition at 0.011 µM (HCoV-229E [2]; Human coronavirus 229E, MRC5, 0.011 μM remdesivir alone, MRC-5 infected 3 hr, MOI 0.01, 48 hpi): 27%
Remdesivir alone (viral load remaining relative to control) (HCoV-229E [2]; Remdesivir concentration 0.011): 73%
Calculated additive (HCoV-229E [2]; Remdesivir concentration 0.011): 42%
Measured combined (viral load remaining relative to control) (HCoV-229E [2]; Remdesivir concentration 0.011 with TTFields): 46%
Remdesivir alone (viral load remaining relative to control) (HCoV-229E [2]; Remdesivir concentration 0.023): 35%
Calculated additive (HCoV-229E [2]; Remdesivir concentration 0.023): 20%
Measured combined (viral load remaining relative to control) (HCoV-229E [2]; Remdesivir concentration 0.023 with TTFields): 15%
reduction of viral load (HCoV-229E [2]; high dose (0.023 μM) remdesivir with concomitant 150 kHz TTFields, 48 hpi): 85%
reduction of viral load (HCoV-229E [2]; low dose (0.011 μM) remdesivir with concomitant 150 kHz TTFields, 48 hpi): 54%
